Here are results for twelve compounds from ChEMBL document CHEMBL5126512, “Current status of carbazole hybrids as anticancer agents” (Eur J Med Chem, 2022).

Where only a bound is given, the exact number is not on record here.

For data set [1], the system named is B16-F10. Description: Antiproliferative activity against mouse B16-F10 cells assessed as cell growth inhibition measured after 24 hrs by MTT assay. The format is functional, cell-based. The note with it: B16-F10, 24 h.
Data set [2] concerns DU-145. The experiment in a line: Antiproliferative activity against human DU-145 cells assessed as cell growth inhibition measured after 24 hrs by MTT assay. The format is functional, cell-based. The note with it: DU-145, 24 h. (In general: Formazan colour is commonly taken as a measure of viable cells.)
Data set [3] relates to SK-OV-3. The experiment in a line: Antiproliferative activity against human SK-OV-3 cells assessed as cell growth inhibition measured after 24 hrs by MTT assay. The format is functional, cell-based. The note with it: SK-OV-3, 24 h.
Data set [4] deals with MDA-MB-231. Description: Antiproliferative activity against human MDA-MB-231 cells assessed as cell growth inhibition measured after 24 hrs by MTT assay. The format is functional, cell-based. The note with it: MDA-MB-231, 24 h.
For data set [5], the system named is KYSE-410. The experiment in a line: Antiproliferative activity against human KYSE-410 cells assessed as cell growth inhibition measured after 48 hrs by CCK-8 assay. It counts as functional, cell-based. The note with it: KYSE-410, 48 h.
Data set [6] can be described thus: Antiproliferative activity against human KYSE-170 cells assessed as cell growth inhibition measured after 48 hrs by CCK-8 assay. The format is functional, cell-based. The note with it: KYSE-170, 48 h.
The subject of data set [7] is KYSE-140. Description: Antiproliferative activity against human KYSE-140 cells assessed as cell growth inhibition measured after 48 hrs by CCK-8 assay. The format is functional, cell-based. The note with it: KYSE-140, 48 h.
The test system of data set [8] is KYSE-510. The experiment in a line: Antiproliferative activity against human KYSE-510 cells assessed as cell growth inhibition measured after 48 hrs by CCK-8 assay. It counts as functional, cell-based. The note with it: KYSE-510, 48 h.
The subject of data set [9] is KYSE-30. The experiment in a line: Antiproliferative activity against human KYSE-30 cells assessed as cell growth inhibition measured after 48 hrs by CCK-8 assay. The format is functional, cell-based. As to conditions: KYSE-30, 48 h.
Data set [10] in a line: Cytotoxicity against human HFB4 cells assessed as cell growth inhibition measured after 24 hrs by MTT assay. The format is toxicity, cell-based.
In data set [11] the test system is MCF7. The experiment in a line: Anticancer activity against human MCF7 cells assessed as cell growth inhibition measured after 24 hrs by MTT assay. The format is functional, cell-based. The note with it: MCF7, 24 h.
The target of data set [12] is Urokinase-type plasminogen activator (Homo sapiens, UniProt P00749). The experiment in a line: Inhibition of urokinase plasminogen activator in human MCF7 cells measured after 24 hrs by ELISA method. It counts as cell-based. On the technique in general: An ELISA detects its analyte on a solid surface through an enzyme-linked reagent.
Data set [13] concerns MCF7. The experiment in a line: Anticancer activity against human MCF7 cells assessed as cell growth inhibition measured after 48 hrs by MTT assay. It counts as functional, cell-based. As to conditions: MCF7, 48 h.
Data set [14] concerns A549. The experiment in a line: Anticancer activity against human A549 cells assessed as cell growth inhibition measured after 48 hrs by MTT assay. The format is functional, cell-based. As to conditions: A549, 48 h.
Data set [15] deals with Jurkat. Description: Antiproliferative activity against human Jurkat cells assessed as cell growth inhibition measured after 48 hrs by MTT assay. The format is functional, cell-based.
The subject of data set [16] is HeLa. The experiment in a line: Cytotoxicity against human HeLa cells assessed as cell growth inhibition measured after 72 hrs by MTT assay. The format is functional, cell-based. As to conditions: pooled result: one value given for 3 cell lines, strains, targets or settings.
Data set [17] relates to HepG2. Description: Cytotoxicity against human HepG2 cells assessed as cell growth inhibition measured after 72 hrs by MTT assay. The format is functional, cell-based. The note with it: HepG2, 72 h.
The nature of data set [18]: Cytotoxicity against human MCF-10A cells assessed as cell growth inhibition measured after 72 hrs by MTT assay. It counts as toxicity, cell-based.
Data set [19] can be described thus: Cytotoxicity against mouse 3T3-L1 cells assessed as cell growth inhibition measured after 72 hrs by MTT assay. The format is toxicity, cell-based.
The subject of data set [20] is MDA-MB-231. Description: Cytotoxicity against human MDA-MB-231 cells assessed as cell growth inhibition measured after 72 hrs by MTT assay. The format is functional, cell-based. As to conditions: MDA-MB-231, 72 h.
Data set [21] has as its system MCF7. Description: Cytotoxicity against human MCF7 cells assessed as cell growth inhibition measured after 72 hrs by MTT assay. It counts as functional, cell-based. The note with it: MCF7, 72 h.
Data set [22] concerns PA-1. Description: Antiproliferative activity against human PA-1 cells assessed as cell growth inhibition measured after 48 hrs by MTT assay. It counts as functional, cell-based. As to conditions: PA-1, 48 h.
Data set [23] has as its system OVCAR-3. The experiment in a line: Antiproliferative activity against human OVCAR-3 cells assessed as cell growth inhibition measured after 48 hrs by MTT assay. As to conditions: OVCAR-3, 48 h. The format is functional, cell-based.
For data set [24], the system named is HeLa. The experiment in a line: Antiproliferative activity against human HeLa cells assessed as cell growth inhibition measured after 48 hrs by MTT assay. It counts as functional, cell-based.
The subject of data set [25] is DU-145. The experiment in a line: Antiproliferative activity against human DU-145 cells assessed as cell growth inhibition measured after 48 hrs by MTT assay. It counts as functional, cell-based. The note with it: DU-145, 48 h.
In data set [26] the test system is HepG2. Description: Antiproliferative activity against human HepG2 cells assessed as cell growth inhibition measured after 48 hrs by MTT assay. It counts as functional, cell-based. As to conditions: HepG2, 48 h.
Data set [27] relates to HCT-116. The experiment in a line: Antiproliferative activity against human HCT-116 cells assessed as cell growth inhibition measured after 48 hrs by MTT assay. As to conditions: HCT-116, 48 h. It counts as functional, cell-based.
In data set [28] the test system is HepG2. Description: Antitumor activity against human HepG2 xenografted in BALB/c nude mouse assessed as tumor growth inhibition at 50 mg/kg, iv administered every 2 days and measured upto 30 days relative to control. It counts as functional. As to conditions: read-out: TGI. On the technique in general: Xenograft models place foreign cells or tissue in a host animal.

For data set [29], the system named is HeLa. The experiment in a line: Antiproliferative activity against human HeLa cells assessed as cell growth inhibition by WST-1 assay. The format is functional, cell-based.
The test system of data set [30] is HT-29. The experiment in a line: Antiproliferative activity against human HT-29 cells assessed as cell growth inhibition measured after 48 hrs by MTT assay. It counts as functional, cell-based. As to conditions: HT-29, 48 h.
Data set [31] deals with SMMC-7721. Description: Cytotoxicity against human SMMC-7721 cells assessed as cell growth inhibition measured after 48 hrs by MTT assay. The format is functional, cell-based. The note with it: SMMC-7721, 48 h.
Data set [32] has as its system Hep 3B2. The experiment in a line: Cytotoxicity against human Hep3B cells assessed as cell growth inhibition measured after 48 hrs by MTT assay. The format is functional, cell-based.
The nature of data set [33]: Cytotoxicity against human HaCaT cells assessed as cell growth inhibition measured after 24 hrs by MTT assay. It counts as toxicity, cell-based.
Data set [34] has as its system DLD-1. The experiment in a line: Cytotoxicity against human DLD-1 cells assessed as cell growth inhibition measured after 24 hrs by MTT assay. The format is functional, cell-based. The note with it: DLD-1, 24 h.
Data set [35] in a line: Cytotoxicity against HEK293 cells assessed as cell growth inhibition measured after 24 hrs by MTT assay. The format is toxicity, cell-based. The note with it: human.

As usually defined, the IC50 is the concentration that gives 50% inhibition. `CNC1=C([N+](=O)[O-])C(c2cc(OC)c(OC)c(OC)c2)c2ccc3[nH]c4ccccc4c3c2O1` (stereo unspecified): the half-inhibitory concentration (IC50) in data set [1], in data set [2], in [3] and in [4] was 5100 nM in each case.
In the case of `COc1ccc(NS(=O)(=O)c2ccc3c(c2)c2cc(O)ccc2n3C)c(OC)n1`, the IC50 in data set [5], in data set [6], in [7], in [8] and in data set [9] was 10 nM each time.
With `O=[N+]([O-])c1coc(C2c3[nH]c4ccccc4c3C(c3cc([N+](=O)[O-])co3)c3[nH]c4ccccc4c32)c1` (stereo unspecified), in [10], the IC50 at 24 h was 75200 nM. In addition, the figures for the IC50 in data set [11] and in data set [12] were 5240 nM and 3800 nM, respectively.
As for `O=C1c2[nH]c3ccc(Cl)cc3c2CC[C@@]12[C@@H](c1ccc(Cl)cc1)C1CSCN1C21c2ccccc2-c2nc3ccccc3nc21` (stereo partly specified), the IC50 turned out to be 21000 nM in data set [13] and 20000 nM in data set [14].
Turning to `O=C(Cn1c2ccccc2c2c3oc(=O)cc(COC(=O)CCCc4ccc(N(CCCl)CCCl)cc4)c3ccc21)NCCC[P+](c1ccccc1)(c1ccccc1)c1ccccc1`, in data set [15], the half-maximal inhibitory concentration (IC50) turned out to be 20000 nM.
As to `COc1cc(NC(=O)Nc2cc(C)c3[nH]c4ccc(C)cc4c3c2C)cc(OC)c1OC`, the IC50 in data set [16], in [17], in data set [20] and in [21] was 1930 nM throughout. Moreover, the IC50 at 72 h in data set [18] is 210000 nM; in data set [19], 141000 nM.
For the compound `COc1ccc2[nH]c3c4c(c(C)cc3c2c1)OC(C)(C)C=C4` [KOENIMBINE], the IC50 in data set [22], in data set [23], in data set [24], in [25], in [26] and in [27] was 200 nM throughout.
Consider `COc1ccc(/C=C\c2cc(OC)c(OC)c(OC)c2)cc1OP(=O)(O)O` [FOSBRETABULIN], for which the inhibition in vivo at 50 mg/kg in data set [28] is 48.3%.
For the compound `CC(C)=CCCC1(C)C=Cc2c(c(C)cc3c2[nH]c2c(-c4c(O)ccc5c4[nH]c4c6c(c(C)cc45)OC(C)(CCC=C(C)C)C=C6)c(O)ccc23)O1` (stereo unspecified), the IC50 in data set [29] was found to be 20000 nM.
In the case of `COc1ccc2c(c1)[nH]c1cc(O)c(CN3CCCCC3)cc12`, the IC50 in data set [27] and in data set [30] was 18000 nM each time.
On to `COc1cccc2c1C(=O)c1c(O)c3c(c(O)c1C2=O)C[C@@](O)(C(=O)CO)C[C@@H]3O[C@H]1C[C@H](N)[C@H](O)[C@H](C)O1` [DOXORUBICIN], for which the IC50 in data set [31] and in data set [32] was 1020 nM throughout.
For `COc1ccc2c(c1)[nH]c1c3c(c(C)cc12)OC(C)(C)C=C3`, the IC50 at 24 h in [33] and in data set [35] was more than 100000 nM in each case. Further, in [34], the IC50 was found to be 17900 nM.
